Laboratory results published in patent publication US20240376086A1, “SOLID FORM OF RHO-ASSOCIATED PROTEIN KINASE INHIBITOR OR SOLVATE THEREOF, PREPARATION METHOD AND USE THEREOF” (BEIJING TIDE PHARMACEUTICAL CO., LTD., priority 2021, published 2024).

Columns and labels:
Assay type in all cases: physicochemical
[1] = Solid heat stability test (heating in DSC, then XRPD)
Experimental: Experimental Example 2: Solid Heat Stability Test
In a differential scanning calorimeter, samples of Crystalline Form I of Compound A monohydrate were heated at a rate of 10° C./min to 150° C. and 210° C., respectively, and then analyzed by X-ray powder diffraction.

[2] = Solid hygroscopicity test; details: 25° C.±1° C., 80%±2% relative humidity, 24 hours
Experimental: Experimental Example 3: Solid Hygroscopicity Test
100 mg of Crystalline Form II of Compound A anhydrate and 100 mg of Crystalline Form I of Compound A monohydrate were precisely weighed. The two samples were placed at 25° C.±1° C. and 80%±2% relative humidity for 24 hours. The weight of the samples was then measured and the percentage weight increase was calculated.

[3] = Solid stability test (XRPD after storage)
Experimental: Experimental Example 1: Solid Stability Test
Two samples of Crystalline Form II of Compound A anhydrate were placed in environments of 40° C./75% RH and 60° C./90% RH for 7 days.

crystalline form by XRPD after heat treatment ([1]; heated at 10° C./min to 150° C.)	weight increase percentage (hygroscopicity) [2] [%]	change in the crystalline form by XRPD analysis ([3]; 40° C./75% RH for 7 days)	change in the crystalline form by XRPD analysis ([3]; 60° C./90% RH for 7 days)	SMILES	crystalline form by XRPD after heat treatment ([1]; heated at 10° C./min to 210° C.)
remained unchanged	3.62	–	–	Cn1c(C(=O)C2CC(F)(F)C2)cc2ccc(-c3nccc(Nc4ccc(-c5cn[nH]c5)cc4)n3)cc21 [Crystalline Form I of Compound A monohydrate]	converted to crystalline form II of Compound A anhydrous
–	0.69	no change in the crystalline form	no change in the crystalline form	Cn1c(C(=O)C2CC(F)(F)C2)cc2ccc(-c3nccc(Nc4ccc(-c5cn[nH]c5)cc4)n3)cc21 [Crystalline Form II of Compound A anhydrate]	–
